Data: the supplement of paper PMC5908809

Key:
[1] = system: KAI3 (IL-2 2.5 ng/mL); assay: percent inhibition of viability; higher = more inhibition; conditions: 72 h
[2] = system: NK-YS (IL-2 2.5 ng/mL); assay: as above; conditions: 72 h
[3] = system: normal primary NK cells, pool 3 (3 donors) (IL-2 2.5 ng/mL); assay: as above; conditions: 72 h
[4] = system: normal primary NK cells, pool 1 (3 donors), resting (IL-2 0 ng/mL); assay: as above; conditions: 72 h
[5] = system: IMC-1 (IL-2 20 ng/mL); assay: as above; conditions: 72 h
[6] = system: SNK-6 (IL-2 2.5 ng/mL); assay: as above; conditions: 72 h
[7] = system: normal primary NK cells, pool 2 (3 donors) (IL-2 2.5 ng/mL); assay: as above; conditions: 72 h
[8] = system: DERL-7 (IL-2 2.5 ng/mL); assay: as above; conditions: 72 h
[9] = system: KHYG-1 (IL-2 2.5 ng/mL); assay: as above; conditions: 72 h
[10] = system: normal primary NK cells, pool 1 (3 donors) (IL-2 2.5 ng/mL); assay: as above; conditions: 72 h
[11] = system: NKL (IL-2 2.5 ng/mL); assay: as above; conditions: 72 h
[12] = system: NK-92 (IL-2 2.5 ng/mL); assay: as above; conditions: 72 h
[13] = system: YT (IL-2 2.5 ng/mL); assay: as above; conditions: 72 h
[14] = system: normal NK cells expanded with K562-aAPC; assay: drug sensitivity score (DSS) (DSS units); higher = more sensitive; extreme values may be limits of the assay; conditions: 72 h; IL-2 2.5 ng/mL
Description: (§1)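 Drug sensitivity and resistance testing on K562-aAPC-expanded normal NK cells: 5 concentrations (10-fold steps over a 10,000-fold range), 72 h at 37 °C, viability by CellTiter-Glo normalised to DMSO and benzethonium chloride controls; DSS from the fitted curve.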

[15] = system: KAI3 (IL-2 2.5 ng/mL); assay: as above; conditions: 72 h
[16] = system: NK-YS (IL-2 2.5 ng/mL); assay: as above; conditions: 72 h
[17] = system: normal primary NK cells, pool 3 (3 donors) (IL-2 2.5 ng/mL); assay: as above; conditions: 72 h
[18] = system: normal primary NK cells, pool 1 (3 donors), resting (IL-2 0 ng/mL); assay: as above; conditions: 72 h
[19] = system: IMC-1 (IL-2 20 ng/mL); assay: as above; conditions: 72 h
[20] = system: SNK-6 (IL-2 2.5 ng/mL); assay: as above; conditions: 72 h
[21] = system: normal primary NK cells, pool 2 (3 donors) (IL-2 2.5 ng/mL); assay: as above; conditions: 72 h
[22] = system: DERL-7 (IL-2 2.5 ng/mL); assay: as above; conditions: 72 h
[23] = system: KHYG-1 (IL-2 2.5 ng/mL); assay: as above; conditions: 72 h
[24] = system: normal primary NK cells, pool 1 (3 donors) (IL-2 2.5 ng/mL); assay: as above; conditions: 72 h
[25] = system: NKL (IL-2 2.5 ng/mL); assay: as above; conditions: 72 h
[26] = system: NK-92 (IL-2 2.5 ng/mL); assay: as above; conditions: 72 h
[27] = system: YT (IL-2 2.5 ng/mL); assay: as above; conditions: 72 h
[28] = system: normal NK cells expanded with K562-aAPC; assay: percent inhibition of viability; higher = more inhibition; conditions: 72 h, IL-2 2.5 ng/mL
Description: as §1

C[C@@H]1CN(Cc2ccc(F)cc2)[C@@H](C)CN1C(=O)c1cc2c(C(=O)C(=O)N(C)C)cn(C)c2cc1Cl [Talmapimod] (max concentration tested 10000 nM)
percent inhibition of viability [%]
Conditions | 1 nM | 10 nM | 100 nM | 1000 nM | 10000 nM
[1] | -4.84 | 8.7 | 21.6 | 21.2 | 32.1
[2] | -5.34 | -2.3 | 1.96 | 6.17 | 14.5
[3] | -3.75 | 4.83 | 4.73 | 0.2 | 1.78
[4] | -0.54 | -6.9 | 17.6 | 15.2 | 37
[5] | -2.4 | -5.13 | -5.16 | -10.4 | 0.72
[6] | -0.46 | -0.9 | -3.03 | -23.7 | -10.1
[7] | -0.88 | -7.3 | -3.09 | 1.69 | 0.02
[8] | -8.76 | 3.34 | -3.64 | 2.18 | -3.8
[9] | -8.74 | -9.48 | -3.07 | -9.07 | -3.04
[10] | -13.6 | -10.8 | -4.95 | -6.75 | 2.92
[11] | -6.18 | -3.36 | 7.54 | 9.7 | 22.9
[12] | -13.6 | -14.2 | -7.08 | -0.77 | 6.94
[13] | -3.64 | -1.4 | 4.73 | 5.29 | 14.3
[28] | -9.71 | -4.89 | -9.38 | -4.26 | -10.1

Conditions | drug sensitivity score
[14] | 0
[15] | 6.42
[16] | 0.37
[17] | 0
[18] | 4.01
[19] | 0
[20] | 0
[21] | 0
[22] | 0
[23] | 0
[24] | 0
[25] | 1.47
[26] | 0
[27] | 0.18

COc1cc2c(N3CCN(C(=O)Nc4ccc(OC(C)C)cc4)CC3)ncnc2cc1OCCCN1CCCCC1 [Tandutinib] (max concentration tested 1000 nM)
percent inhibition of viability [%]
Conditions | 0.1 nM | 1 nM | 10 nM | 100 nM | 1000 nM
[1] | -0.83 | 3.14 | 3.31 | 3.31 | 17.9
[2] | 2.01 | 2.91 | 6.63 | 1.61 | 13.4
[3] | -11.8 | -8.39 | -1.84 | -4.05 | -10.6
[4] | 6.87 | -8.83 | -1.76 | -7.72 | -7.9
[5] | -5.53 | -2.46 | 0.78 | 2.8 | 18.4
[6] | 2.47 | -9.17 | 1.36 | -17.2 | -2.8
[7] | -9.1 | 2.32 | -0.09 | -2.34 | 4.26
[8] | 6.14 | 3.13 | 1.63 | 2.2 | -0.71
[9] | 3.28 | 0.15 | 6.9 | 6.14 | 16.8
[10] | 3.36 | -11.3 | -7.24 | -22 | -12.1
[11] | -15.4 | -9.75 | -9.72 | -2.92 | 7.53
[12] | -7.68 | 0.56 | 17.9 | 8.5 | 19.1
[13] | 1.06 | 0.08 | 6.39 | -0.96 | 9.65
[28] | 0.5 | 4.31 | 2.45 | 1.29 | 8.72

Conditions | drug sensitivity score
[14] | 0
[15] | 0.84
[16] | 0
[17] | 0
[18] | 0
[19] | 0.83
[20] | 0
[21] | 0
[22] | 0
[23] | 0.42
[24] | 0
[25] | 0
[26] | 4.33
[27] | 0
